Activity calls are given as the source filed them. The calls are words filed in the database; no cut-off is given here.
Key:
RAW264.7 [1] = assay: Cytotoxicity against mouse RAW264.7 cells assessed as effect on cell viability measured after 12 hrs by MTT assay; format: functional
RAW264.7 [2] = assay: Antiinflammatory activity in mouse RAW264.7 assessed as inhibition of LPS-induced NO production preincubated for 12 hrs followed by LPS stimulation and measured after 6 hrs by Griess reagent based assay; format: functional, cell-based
Mus musculus [3] = assay: Antiinflammatory activity in carrageenan-induced acute arthritis ICR mouse assessed as reduction in paw swelling at 10 to 20 mg/kg, po for 10 days followed by carrageenan stimulation and measured upto 6 hrs by vernier caliper method; format: functional, organism-based; settings: dose 10-20 mg/kg, time 10.0 day
Mus musculus [4] = assay: Antiinflammatory activity in carrageenan-induced acute arthritis ICR mouse assessed as reduction in relative neutrophil to lymphocyte ratio at 10 mg/kg, po for 10 days followed by carrageenan stimulation and measured upto 6 hrs by hematology analyzer; format: functional; settings: time 10 day
Mus musculus [5] = assay: Antiinflammatory activity in carrageenan-induced acute arthritis ICR mouse assessed as reduction in relative neutrophil to lymphocyte ratio at 20 mg/kg, po for 10 days followed by carrageenan stimulation and measured upto 6 hrs by hematology analyzer; format: functional; settings: time 10 day
Mus musculus [6] = assay: Antiinflammatory activity in carrageenan-induced acute arthritis ICR mouse assessed as downregulation of IL-2 secretion in plasma measured at 10 to 20 mg/kg, po for 10 days followed by carrageenan stimulation and measured after 6 hrs by ELISA; format: functional, organism-based; settings: dose 10-20 mg/kg, time 10.0 day, DDE = dose-dependent effect
Mus musculus [7] = assay: Antiinflammatory activity in carrageenan-induced acute arthritis ICR mouse assessed as downregulation of IL-4 secretion in plasma measured at 10 to 20 mg/kg, po for 10 days followed by carrageenan stimulation and measured after 6 hrs by ELISA; format: functional, organism-based; settings: dose 10-20 mg/kg, time 10.0 day, DDE = dose-dependent effect
Mus musculus [8] = assay: Antiinflammatory activity in carrageenan-induced acute arthritis ICR mouse assessed as downregulation of IL-5 secretion in plasma measured at 10 to 20 mg/kg, po for 10 days followed by carrageenan stimulation and measured after 6 hrs by ELISA; format: functional, organism-based; settings: dose 10-20 mg/kg, time 10.0 day, DDE = dose-dependent effect
RAW264.7 [9] = assay: Antiinflammatory activity in mouse RAW264.7 cells assessed as increase in IKK alpha phosphorylation at 0.1 to 5 uM preincubated for 12 hrs followed by LPS stimulation and measured after 24 hrs by western blot assay; format: functional, cell-based; settings: dose 0.1-5 µM, time 36.0 hrs, DDE = dose-dependent effect
RAW264.7 [10] = assay: Antiinflammatory activity in mouse RAW264.7 cells assessed as increase in IKK beta phosphorylation at 0.1 to 5 uM preincubated for 12 hrs followed by LPS stimulation and measured after 24 hrs by western blot assay; format: functional, cell-based; settings: dose 0.1-5 µM, time 36.0 hrs, DDE = dose-dependent effect
RAW264.7 [11] = assay: Antiinflammatory activity in mouse RAW264.7 cells assessed as suppression of NF-kappa B expression at 0.1 to 5 uM preincubated for 12 hrs followed by LPS stimulation and measured after 24 hrs by western blot assay; format: functional, cell-based; settings: dose 0.1-5 µM, time 36.0 hrs, DDE = dose-dependent effect
[12] = target: T1, Toll-like receptor 4 (Mus musculus) (UniProt Q9QUK6); assay: Binding affinity to mouse TLR4 in RAW264.7 cells assessed as thermal stabilization at 1 uM and measured after 12 hrs by CETSA analysis; format: cell-based
T1 sequence (whole entry): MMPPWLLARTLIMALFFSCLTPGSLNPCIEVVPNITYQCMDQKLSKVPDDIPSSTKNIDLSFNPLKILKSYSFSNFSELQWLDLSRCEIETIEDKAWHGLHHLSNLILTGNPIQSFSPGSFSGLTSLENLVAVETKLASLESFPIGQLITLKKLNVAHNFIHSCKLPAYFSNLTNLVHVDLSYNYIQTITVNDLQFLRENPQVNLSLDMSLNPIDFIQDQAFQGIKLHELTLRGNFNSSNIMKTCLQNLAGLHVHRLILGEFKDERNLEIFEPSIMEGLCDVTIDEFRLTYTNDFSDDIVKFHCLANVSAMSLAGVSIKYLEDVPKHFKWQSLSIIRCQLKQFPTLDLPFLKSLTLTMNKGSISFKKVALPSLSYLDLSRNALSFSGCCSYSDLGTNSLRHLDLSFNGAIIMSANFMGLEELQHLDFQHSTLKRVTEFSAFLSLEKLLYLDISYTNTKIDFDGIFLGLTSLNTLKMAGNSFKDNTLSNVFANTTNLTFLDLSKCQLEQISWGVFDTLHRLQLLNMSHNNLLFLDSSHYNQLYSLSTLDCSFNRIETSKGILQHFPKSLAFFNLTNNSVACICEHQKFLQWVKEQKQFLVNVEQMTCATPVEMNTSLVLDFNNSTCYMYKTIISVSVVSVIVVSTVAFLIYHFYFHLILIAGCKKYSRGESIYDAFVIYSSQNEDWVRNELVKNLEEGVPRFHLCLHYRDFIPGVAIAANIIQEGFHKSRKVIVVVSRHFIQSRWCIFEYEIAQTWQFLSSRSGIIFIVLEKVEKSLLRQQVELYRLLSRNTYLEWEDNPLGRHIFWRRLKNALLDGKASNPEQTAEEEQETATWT

RAW264.7 [13] = assay: Antiinflammatory activity in LPS induced mouse RAW264.7 cells assessed as downregulation of IL-2 secretion at 0.1 to 5 uM incubated for 12 hrs followed by LPS stimulation and measured after 24 hrs by ELISA; format: functional, cell-based; settings: dose 0.1-5 µM, time 36.0 hrs, DDE = dose-dependent effect
RAW264.7 [14] = assay: Antiinflammatory activity in LPS induced mouse RAW264.7 cells assessed as downregulation of IL-4 secretion at 0.1 to 5 uM incubated for 12 hrs followed by LPS stimulation and measured after 24 hrs by ELISA; format: functional, cell-based; settings: dose 0.1-5 µM, time 36.0 hrs, DDE = dose-dependent effect
RAW264.7 [15] = assay: Antiinflammatory activity in LPS induced mouse RAW264.7 cells assessed as downregulation of IL-5 secretion at 0.1 to 5 uM incubated for 12 hrs followed by LPS stimulation and measured after 24 hrs by ELISA; format: functional, cell-based; settings: dose 0.1-5 µM, time 36.0 hrs, DDE = dose-dependent effect

SMILES	IC50 (RAW264.7 [2])	CC50 (RAW264.7 [1])	further results
C[C@H](C(=O)c1c(O)c2c(c3c1OC(=O)C[C@H]3c1ccccc1)OC(C)(C)C=C2)[C@@H](C)O	10.1 µM	507 µM	
CCCCC[C@H](CC(=O)O)c1c(O)c2c(c3c1OC(C)(C)C=C3)O[C@H](C)[C@H](C)C2=O	5.17 µM	636 µM	
C[C@@H]1C(=O)c2c(O)c([C@@H](CC(=O)O)c3ccccc3)c3c(c2O[C@@H]1C)C=CC(C)(C)O3 (single isomer, unassigned)	11.3 µM	583 µM	
CCCC(CC(=O)O)c1c2c(c(O)c3c1O[C@H](C)[C@@H](C)C3=O)C=CC(C)(C)O2 (stereo partly drawn)	8.44 µM	663 µM	
C[C@@H]1Oc2c(c(O)c3c(c2[C@@H](CC(=O)O)c2ccccc2)OC(C)(C)C=C3)C(=O)[C@H]1C	13.8 µM	569 µM	
CCC[C@@H](CC(=O)OC)c1c(O)c2c(c3c1OC(C)(C)C=C3)O[C@@H](C)[C@H](C)C2=O	2.91 µM	698 µM	
CCCCCC(CC(=O)OC)c1c2c(c(O)c3c1O[C@H](C)[C@@H](C)C3=O)C=CC(C)(C)O2 (stereo partly drawn)	4.05 µM	687 µM	
CCCC1CC(=O)Oc2c(C(=O)[C@H](C)[C@H](C)O)c(O)c3c(c21)OC(C)(C)C=C3 (stereo partly drawn)	8.42 µM	552 µM	

Second part, led by results:

IC50 (RAW264.7 [2])	SMILES	CC50 (RAW264.7 [1])	further results
12.6 µM	C[C@H]1Oc2c(c(O)c3c(c2[C@@H](CC(=O)O)c2ccccc2)OC(C)(C)C=C3)C(=O)[C@@H]1C	524 µM	
20.3 µM	CNC(=N)NCCC[C@H](N)C(=O)O [TILARGININE ACETATE]	214 µM	
11.3 µM	COC(=O)C[C@@H](c1ccccc1)c1c(O)c2c(c3c1OC(C)(C)C=C3)O[C@H](C)[C@H](C)C2=O	601 µM	
5.14 µM	CCCC(CC(=O)OC)c1c2c(c(O)c3c1O[C@H](C)[C@@H](C)C3=O)C=CC(C)(C)O2 (stereo partly drawn)	649 µM	
6.88 µM	CCCCCC(CC(=O)O)c1c2c(c(O)c3c1O[C@H](C)[C@@H](C)C3=O)C=CC(C)(C)O2 (stereo partly drawn)	668 µM	
7.43 µM	CCCCC(CC(=O)O)c1c2c(c(O)c3c1O[C@H](C)[C@@H](C)C3=O)C=CC(C)(C)O2 (stereo partly drawn)	654 µM	
0.92 µM	CCCCC[C@H](CC(=O)OC)c1c(O)c2c(c3c1OC(C)(C)C=C3)O[C@H](C)[C@H](C)C2=O	660 µM	Activity (Mus musculus [3]): Active; Ratio (Mus musculus [4]): 0.89; Ratio (Mus musculus [5]): 0.74; Activity (Mus musculus [6]): Dde; Activity (Mus musculus [7]): Dde; Activity (Mus musculus [8]): Dde; Activity (RAW264.7 [9]): Dde; Activity (RAW264.7 [10]): Dde; Activity (RAW264.7 [11]): Dde; Activity [12]: Active; Activity (RAW264.7 [13]): Dde; Activity (RAW264.7 [14]): Dde; Activity (RAW264.7 [15]): Dde
9.34 µM	C[C@H](O)[C@H](C)C(=O)c1c(O)c2c(c3c1OC(=O)C[C@H]3c1ccccc1)OC(C)(C)C=C2	517 µM	
12.5 µM	COC(=O)C[C@@H](c1ccccc1)c1c2c(c(O)c3c1O[C@@H](C)[C@H](C)C3=O)C=CC(C)(C)O2	594 µM	
18.4 µM	CC/C=C\C[C@H](CC(=O)O)c1c2c(c(O)c3c1O[C@@H](C)[C@H](C)C3=O)C=CC(C)(C)O2	550 µM	
4.23 µM	CCCC[C@H](CC(=O)OC)c1c2c(c(O)c3c1O[C@@H](C)[C@H](C)C3=O)C=CC(C)(C)O2	574 µM	
8.23 µM	C[C@@H]1Oc2c3c(c([C@@H](CC(=O)O)c4ccccc4)c(O)c2C(=O)[C@@]1(C)O)OC(C)(C)C=C3	588 µM	

Source: ChEMBL document CHEMBL5137018, “Pyranochromones with Anti-Inflammatory Activities in Arthritis from Calophyllum membranaceum” (J Nat Prod, 2022)
